The compounds below were run against human PAD4 (Homo sapiens (Human), UniProt Q9UM07) (assay: In Vitro PAD4 BAEE Biochemical Assay). Details: recombinant PAD4 5 nM, 2 mM calcium chloride, 3 mM BAEE substrate; geometric mean of multiple experiments.
In short: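 Recombinant human PAD4 (His-SUMO tag removed, E. coli-expressed), 5 nM, preincubated with compound and 2 mM CaCl2 30 min at 25 °C in MOPS pH 7.6 with DTT; 3 mM BAEE added for 2 h at 25 °C, EDTA stop. Released ammonia detected by o-phthalaldehyde/DTT fluorescence (ex 405, em 535 nm).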

human PAD4, sequence (Q9UM07 2-663): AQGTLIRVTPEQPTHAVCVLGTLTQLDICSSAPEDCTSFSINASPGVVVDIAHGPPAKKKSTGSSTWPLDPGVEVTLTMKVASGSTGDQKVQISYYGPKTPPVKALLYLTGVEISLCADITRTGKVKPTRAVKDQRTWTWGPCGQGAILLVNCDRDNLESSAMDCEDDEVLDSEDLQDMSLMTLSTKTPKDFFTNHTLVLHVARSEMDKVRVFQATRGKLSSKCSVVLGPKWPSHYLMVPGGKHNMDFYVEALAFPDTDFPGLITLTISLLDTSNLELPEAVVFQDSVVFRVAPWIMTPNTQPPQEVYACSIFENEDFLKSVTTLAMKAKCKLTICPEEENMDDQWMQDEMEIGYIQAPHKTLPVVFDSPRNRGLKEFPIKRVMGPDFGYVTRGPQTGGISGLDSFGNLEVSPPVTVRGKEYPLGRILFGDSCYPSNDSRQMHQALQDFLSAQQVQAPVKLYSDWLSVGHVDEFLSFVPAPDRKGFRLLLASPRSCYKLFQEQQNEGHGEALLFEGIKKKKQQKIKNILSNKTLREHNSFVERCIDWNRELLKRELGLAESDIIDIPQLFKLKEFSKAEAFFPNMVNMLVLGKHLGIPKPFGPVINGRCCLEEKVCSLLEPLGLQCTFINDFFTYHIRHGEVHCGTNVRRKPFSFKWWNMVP

C[C@@H](NC(=O)c1ccc(C(F)F)nc1)c1ccc2cc(-c3nc4cc(C(=O)N5C[C@H](N)[C@@H]6CC[C@H]5C6)cc(F)c4n3C3CC3)n(CC3CC3)c2n1 [Example 310, N-((R)-1-(2-(5-((1S,4R,5R)-4-amino-2-azabicyclo[3.2.1]octane-2-carbonyl)-1-cyclopropyl-7-fluoro-1H-benzo[d]imidazol-2-yl)-1-(cyclopropylmethyl)-1H-pyrrolo[2,3-b]pyridin-6-yl)ethyl)-6-(difluoromethyl)nicotinamide] and COc1cc(C(=O)N2C[C@H](N)[C@@H]3CC[C@H]2C3)cc2nc(-c3cc4ccc([C@@H](C)NC(=O)c5ccc(C(F)(F)F)nc5)nc4n3CC3CC3)n(C)c12 [Example 313, N-((R)-1-(2-(5-((1S,4R,5R)-4-amino-2-azabicyclo[3.2.1]octane-2-carbonyl)-7-methoxy-1-methyl-1H-benzo[d]imidazol-2-yl)-1-(cyclopropylmethyl)-1H-pyrrolo[2,3-b]pyridin-6-yl)ethyl)-6-(trifluoromethyl)nicotinamide] are within 1.5-fold of each other in IC50: 89.7 nM for the first, 113 nM for the second.

COc1cc(C(=O)N2C[C@H](N)[C@@H]3CC[C@H]2C3)cc2nc(-c3cc4ccc([C@@H](C)NC(=O)[C@@H]5CC5(F)F)nc4n3CC3CC3)n(C)c12 [Example 311, (S)-N-((R)-1-(2-(5-((1S,4R,5R)-4-amino-2-azabicyclo[3.2.1]octane-2-carbonyl)-7-methoxy-1-methyl-1H-benzo[d]imidazol-2-yl)-1-(cyclopropylmethyl)-1H-pyrrolo[2,3-b]pyridin-6-yl)ethyl)-2,2-difluorocyclopropane-1-carboxamide] and COc1cc(C(=O)N2C[C@H](N)[C@@H]3CC[C@H]2C3)cc2nc(-c3cc4ccc([C@@H](C)NC(=O)[C@H]5CC5(F)F)nc4n3CC3CC3)n(C)c12 [Example 312, (R)-N-((R)-1-(2-(5-((1S,4R,5R)-4-amino-2-azabicyclo[3.2.1]octane-2-carbonyl)-7-methoxy-1-methyl-1H-benzo[d]imidazol-2-yl)-1-(cyclopropylmethyl)-1H-pyrrolo[2,3-b]pyridin-6-yl)ethyl)-2,2-difluorocyclopropane-1-carboxamide] are within 1.5-fold of each other in IC50: 67.6 nM for the first, 55.9 nM for the second.

Compared with COc1cc(C(=O)N2C[C@H](N)[C@@H]3CC[C@H]2C3)cc2nc(-c3cc4ccc([C@@H](C)NC(=O)c5cnc(C(F)(F)F)nc5)nc4n3CC3CC3)n(C)c12 [Example 314, N-((R)-1-(2-(5-((1S,4R,5R)-4-amino-2-azabicyclo[3.2.1]octane-2-carbonyl)-7-methoxy-1-methyl-1H-benzo[d]imidazol-2-yl)-1-(cyclopropylmethyl)-1H-pyrrolo[2,3-b]pyridin-6-yl)ethyl)-2-(trifluoromethyl)pyrimidine-5-carboxamide], COc1cc(C(=O)N2C[C@H](N)[C@@H]3CC[C@H]2C3)cc2nc(-c3cc4ccc([C@@H](C)NC(=O)c5cnc(C(F)F)nc5)nc4n3CC3CC3)n(C)c12 [Example 315, N-((R)-1-(2-(5-((1S,4R,5R)-4-amino-2-azabicyclo[3.2.1]octane-2-carbonyl)-7-methoxy-1-methyl-1H-benzo[d]imidazol-2-yl)-1-(cyclopropylmethyl)-1H-pyrrolo[2,3-b]pyridin-6-yl)ethyl)-2-(difluoromethyl)pyrimidine-5-carboxamide] is 1.7-fold lower in IC50: 140 nM for the first, 81.3 nM for the second. The second is the more potent here.

COc1cc(C(=O)N2C[C@H](N)[C@@H]3CC[C@H]2C3)cc2nc(-c3cc4ccc([C@@H](C)NC(=O)c5ccnc(C(F)(F)F)n5)nc4n3CC3CC3)n(C)c12 [Example 316, N-((R)-1-(2-(5-((1S,4R,5R)-4-amino-2-azabicyclo[3.2.1]octane-2-carbonyl)-7-methoxy-1-methyl-1H-benzo[d]imidazol-2-yl)-1-(cyclopropylmethyl)-1H-pyrrolo[2,3-b]pyridin-6-yl)ethyl)-2-(trifluoromethyl)pyrimidine-4-carboxamide] showed an IC50 of 570 nM.
